# Molecular target: T1, rat B1R (bradykinin receptor 1) (Rattus norvegicus, UniProt P97583)
# T1 construct: expressed in transfected cells; host or cells: CHO K1 cells
# T1 sequence (P97583 1-337): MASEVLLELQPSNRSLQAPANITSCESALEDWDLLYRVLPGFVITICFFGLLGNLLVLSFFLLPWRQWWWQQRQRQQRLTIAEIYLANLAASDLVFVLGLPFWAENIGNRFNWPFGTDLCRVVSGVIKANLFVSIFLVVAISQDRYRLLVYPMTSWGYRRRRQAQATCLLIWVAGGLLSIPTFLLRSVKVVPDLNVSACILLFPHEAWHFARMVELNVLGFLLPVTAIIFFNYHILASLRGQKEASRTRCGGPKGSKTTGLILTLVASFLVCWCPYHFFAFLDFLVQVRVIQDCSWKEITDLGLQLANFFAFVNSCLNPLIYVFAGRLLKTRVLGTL
# Experiment: FLIPR Ca2+ assay (Fluo-4) on CHO K1 cells stably transfected with the B1R gene of the rat (rB1R cells): % inhibition at 10 μM / IC50, agonist Des-Arg9-bradykinin
# Assay type: cell-based
# Conditions: CHO-K1, rat B1R
# Outline: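 Using a two-addition FLIPR protocol, compound (10 μM for % values; concentration series for IC50) was preincubated 10–20 min with Fluo-4-loaded B1R-expressing CHO K1 cells before EC80 agonist challenge. Suppression of Ca2+ inflow, read as peak fluorescence, is expressed relative to maximum achievable inhibition; duplicate/triplicate, ≥2 independent experiments.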
row,SMILES,inhibition at 10 µM [%]
1,"O=C(NC1CCc2ccc(C(=O)N3CCC4(CCN(CCc5ccccc5)CC4)CC3)cc21)c1cc(C(F)(F)F)ccc1Cl (stereo not shown) [IND_CC-701, 2-Chloro-N-[6-(9-phenethyl-3,9-diazaspiro[5.5]undecane-3-carbonyl)-2,3-dihydro-1H-inden-1-yl]-5-(trifluoromethyl)-benzamide]",96
2,"O=C(NC1CCc2ccc(C(=O)N3CCC4(CCN(CCCc5cccc(F)c5)CC4)CC3)cc21)c1cc(C(F)(F)F)ccc1Cl (stereo not shown) [IND_CC-702, 2-Chloro-N-[6-[9-[3-(3-fluorophenyl)-propyl]-3,9-diazaspiro[5.5]undecane-3-carbonyl]-2,3-dihydro-1H-inden-1-yl]-5-(trifluoromethyl)-benzamide]",80
3,"O=C(NC1CCc2ccc(C(=O)N3CCC4(CCN(CCCc5ccc(F)cc5)CC4)CC3)cc21)c1cc(C(F)(F)F)ccc1Cl (stereo not shown) [IND_CC-703, 2-Chloro-N-[6-[9-[3-(4-fluorophenyl)-propyl]-3,9-diazaspiro[5.5]undecane-3-carbonyl]-2,3-dihydro-1H-inden-1-yl]-5-(trifluoromethyl)-benzamide]",70
4,"CCCNC(=O)N1CCC2(CC1)CCN(C(=O)c1ccc3c(c1)C(NC(=O)c1ccccc1Cl)CC3)CC2 (stereo not shown) [IND_CC-704, 3-[3-[(2-Chloro-benzoyl)amino]-2,3-dihydro-1H-indene-5-carbonyl]-N-propyl-3,9-diazaspiro[5.5]undecane-9-carboxylic acid amide]",91
5,"N#Cc1cccc(NC(=O)N2CCC3(CC2)CCN(C(=O)c2ccc4c(c2)C(NC(=O)c2ccccc2Cl)CC4)CC3)c1 (stereo not shown) [IND_CC-705, 3-[3-[(2-Chloro-benzoyl)amino]-2,3-dihydro-1H-indene-5-carbonyl]-N-(3-cyano-phenyl)-3,9-diazaspiro[5.5]undecane-9-carboxylic acid amide]",101
6,"O=C(NC1CCc2ccc(C(=O)N3CCC4(CCN(C(=O)NCc5ccccc5)CC4)CC3)cc21)c1ccccc1Cl (stereo not shown) [IND_CC-706, N-Benzyl-3-[3-[(2-chloro-benzoyl)amino]-2,3-dihydro-1H-indene-5-carbonyl]-3,9-diazaspiro[5.5]undecane-9-carboxylic acid amide]",103
7,"CN(C)c1ccc(NC(=O)N2CCC3(CC2)CCN(C(=O)c2ccc4c(c2)C(NC(=O)c2ccccc2Cl)CC4)CC3)cc1 (stereo not shown) [IND_CC-707, 3-[3-[(2-Chloro-benzoyl)amino]-2,3-dihydro-1H-indene-5-carbonyl]-N-(4-dimethylaminophenyl)-3,9-diazaspiro[5.5]undecane-9-carboxylic acid amide]",92
8,"O=C(NC1CCc2ccc(C(=O)N3CCC4(CCN(C(=O)NC5CCCCC5)CC4)CC3)cc21)c1ccccc1Cl (stereo not shown) [IND_CC-708, 3-[3-[(2-Chloro-benzoyl)amino]-2,3-dihydro-1H-indene-5-carbonyl]-N-cyclohexyl-3,9-diazaspiro[5.5]undecane-9-carboxylic acid amide]",99
9,"O=C(NC1CCc2ccc(C(=O)N3CCC4(CCN(C(=O)Nc5c(Cl)cccc5Cl)CC4)CC3)cc21)c1ccccc1Cl (stereo not shown) [IND_CC-709, 3-[3-[(2-Chloro-benzoyl)amino]-2,3-dihydro-1H-indene-5-carbonyl]-N-(2,6-dichloro-phenyl)-3,9-diazaspiro[5.5]undecane-9-carboxylic acid amide]",91
10,"O=C(NC1CCc2ccc(C(=O)N3CCC4(CCN(C(=O)Nc5ccc(Cl)cc5Cl)CC4)CC3)cc21)c1ccccc1Cl (stereo not shown) [IND_CC-710, 3-[3-[(2-Chloro-benzoyl)amino]-2,3-dihydro-1H-indene-5-carbonyl]-N-(2,4-dichlorophenyl)-3,9-diazaspiro[5.5]undecane-9-carboxylic acid amide]",90
11,"O=C(NC1CCc2ccc(C(=O)N3CCC4(CCN(C(=O)Nc5ccc(F)cc5F)CC4)CC3)cc21)c1ccccc1Cl (stereo not shown) [IND_CC-711, 3-[3-[(2-Chloro-benzoyl)amino]-2,3-dihydro-1H-indene-5-carbonyl]-N-(2,4-difluoro-phenyl)-3,9-diazaspiro[5.5]undecane-9-carboxylic acid amide]",94
12,"CCCNC(=O)N1CCC2(CC1)CCN(C(=O)c1ccc3c(c1)C(N(C(=O)c1ccccc1Cl)C1CC1)CC3)C2 (stereo not shown) [IND_CC-712, 2-[3-[(2-Chloro-benzoyl)-cyclopropyl-amino]-2,3-dihydro-1H-indene-5-carbonyl]-N-propyl-2,8-diazaspiro[4.5]decane-8-carboxylic acid amide]",76
13,"O=C(Nc1ccc(F)c(Cl)c1)N1CCC2(CC1)CCN(C(=O)c1ccc3c(c1)C(N(C(=O)c1ccccc1Cl)C1CC1)CC3)C2 (stereo not shown) [IND_CC-713, 2-[3-[(2-Chloro-benzoyl)-cyclopropyl-amino]-2,3-dihydro-1H-indene-5-carbonyl]-N-(3-chloro-4-fluoro-phenyl)-2,8-diazaspiro[4.5]decane-8-carboxylic acid amide]",77
14,"O=C(Nc1ccc(Cl)cc1C(F)(F)F)N1CCC2(CC1)CCN(C(=O)c1ccc3c(c1)C(N(C(=O)c1ccccc1Cl)C1CC1)CC3)C2 (stereo not shown) [IND_CC-714, 2-[3-[(2-Chloro-benzoyl)-cyclopropyl-amino]-2,3-dihydro-1H-indene-5-carbonyl]-N-[4-chloro-2-(trifluoromethyl)-phenyl]-2,8-diazaspiro[4.5]decane-8-carboxylic acid amide]",51
15,"N#Cc1cccc(NC(=O)N2CCC3(CC2)CCN(C(=O)c2ccc4c(c2)C(N(C(=O)c2ccccc2Cl)C2CC2)CC4)C3)c1 (stereo not shown) [IND_CC-715, 2-[3-[(2-Chloro-benzoyl)-cyclopropyl-amino]-2,3-dihydro-1H-indene-5-carbonyl]-N-(3-cyano-phenyl)-2,8-diazaspiro[4.5]decane-8-carboxylic acid amide]",79
16,"O=C(NCc1ccccc1)N1CCC2(CC1)CCN(C(=O)c1ccc3c(c1)C(N(C(=O)c1ccccc1Cl)C1CC1)CC3)C2 (stereo not shown) [IND_CC-716, N-Benzyl-2-[3-[(2-chloro-benzoyl)-cyclopropyl-amino]-2,3-dihydro-1H-indene-5-carbonyl]-2,8-diazaspiro[4.5]decane-8-carboxylic acid amide]",80
17,"O=C(NC1CCCCC1)N1CCC2(CC1)CCN(C(=O)c1ccc3c(c1)C(N(C(=O)c1ccccc1Cl)C1CC1)CC3)C2 (stereo not shown) [IND_CC-717, 2-[3-[(2-Chloro-benzoyl)-cyclopropyl-amino]-2,3-dihydro-1H-indene-5-carbonyl]-N-cyclohexyl-2,8-diazaspiro[4.5]decane-8-carboxylic acid amide]",72
18,"O=C(Nc1c(Cl)cccc1Cl)N1CCC2(CC1)CCN(C(=O)c1ccc3c(c1)C(N(C(=O)c1ccccc1Cl)C1CC1)CC3)C2 (stereo not shown) [IND_CC-718, 2-[3-[(2-Chloro-benzoyl)-cyclopropyl-amino]-2,3-dihydro-1H-indene-5-carbonyl]-N-(2,6-dichloro-phenyl)-2,8-diazaspiro[4.5]decane-8-carboxylic acid amide]",52
19,"O=C(Nc1ccc(F)cc1F)N1CCC2(CC1)CCN(C(=O)c1ccc3c(c1)C(N(C(=O)c1ccccc1Cl)C1CC1)CC3)C2 (stereo not shown) [IND_CC-719, 2-[3-[(2-Chloro-benzoyl)-cyclopropyl-amino]-2,3-dihydro-1H-indene-5-carbonyl]-N-(2,4-difluoro-phenyl)-2,8-diazaspiro[4.5]decane-8-carboxylic acid amide]",59
20,"O=C(Nc1cc(F)cc(F)c1)N1CCC2(CC1)CCN(C(=O)c1ccc3c(c1)C(N(C(=O)c1ccccc1Cl)C1CC1)CC3)C2 (stereo not shown) [IND_CC-720, 2-[3-[(2-Chloro-benzoyl)-cyclopropyl-amino]-2,3-dihydro-1H-indene-5-carbonyl]-N-(3,5-difluoro-phenyl)-2,8-diazaspiro[4.5]decane-8-carboxylic acid amide]",80
21,"O=C(NCc1ccc(Cl)c(Cl)c1)N1CCC2(CC1)CCN(C(=O)c1ccc3c(c1)C(N(C(=O)c1ccccc1Cl)C1CC1)CC3)C2 (stereo not shown) [IND_CC-721, 2-[3-[(2-Chloro-benzoyl)-cyclopropyl-amino]-2,3-dihydro-1H-indene-5-carbonyl]-N-[(3,4-dichlorophenyl)-methyl]-2,8-diazaspiro[4.5]decane-8-carboxylic acid amide]",70
22,"Cc1c(CN2CCC3(CC2)CCN(C(=O)c2ccc4c(c2)C(NC(=O)c2cccc(Cl)c2Cl)CC4)C3)cnn1C (stereo not shown) [IND_CC-722, 2,3-Dichloro-N-[6-[8-[(1,5-dimethyl-1H-pyrazol-4-yl)-methyl]-2,8-diazaspiro[4.5]decane-2-carbonyl]-2,3-dihydro-1H-inden-1-yl]-benzamide]",81
23,"Cc1noc(C)c1CN1CCC2(CC1)CCN(C(=O)c1ccc3c(c1)C(NC(=O)c1cccc(Cl)c1Cl)CC3)C2 (stereo not shown) [IND_CC-723, 2,3-Dichloro-N-[6-[8-[(3,5-dimethyl-isoxazol-4-yl)-methyl]-2,8-diazaspiro[4.5]decane-2-carbonyl]-2,3-dihydro-1H-inden-1-yl]-benzamide]",55
24,"N#Cc1ccccc1CN1CCC2(CC1)CCN(C(=O)c1ccc3c(c1)C(NC(=O)c1cccc(Cl)c1Cl)CC3)C2 (stereo not shown) [IND_CC-724, 2,3-Dichloro-N-[6-[8-[(2-cyano-phenyl)-methyl]-2,8-diazaspiro[4.5]decane-2-carbonyl]-2,3-dihydro-1H-inden-1-yl]-benzamide]",86
25,"O=C(NC1CCc2ccc(C(=O)N3CCC4(CCN(Cc5c(F)cccc5Cl)CC4)C3)cc21)c1cccc(Cl)c1Cl (stereo not shown) [IND_CC-725, 2,3-Dichloro-N-[6-[8-[(2-chloro-6-fluoro-phenyl)-methyl]-2,8-diazaspiro[4.5]decane-2-carbonyl]-2,3-dihydro-1H-inden-1-yl]-benzamide]",56

# Source: patent US8455475B2 (Gruenenthal GmbH, priority 2009, dated 2013)
